The record followed here is ChEMBL document CHEMBL5579898, “Between Theory and Practice: Computational/Experimental Integrated Approaches to Understand the Solubility and Lipophilicity of PROTACs” (J Med Chem, 2024).

Common to all, as to format: physicochemical
Series [1] can be described thus: Kinetic solubility of the compound incubated for 60 mins under shaking condition by UV-Vis spectroscopic analysis. To be noted: 1 h.
Series [2] can be described thus: Kinetic solubility of the compound incubated for 60 mins under shaking condition by UHPLC-MS analysis. Conditions: 1 h.
Series [3] in a line: Distribution coefficient, logD of compound in n-Octanol/PBS at pH 7.4 incubated for 30 mins under shaking condition by UV-Vis spectroscopic analysis. Conditions: for logD at 0.5 h: n-octanol/PBS, pH 7.4; for logD: octanol/water, pH 7.4, 0.5 h, BLD = below limit of detection.
Series [4] can be described thus: Distribution coefficient, logD of compound in n-Octanol/PBS at pH 7.4 incubated for 30 mins under shaking condition by UHPLC-MS analysis.

Turning to `Cc1ncsc1-c1ccc(CNC(=O)[C@@H]2C[C@@H](O)CN2C(=O)[C@@H](NC(=O)COCCOCCOCCOCCOCCOCC(=O)N[C@H](C(=O)N2C[C@H](O)C[C@H]2C(=O)NCc2ccc(-c3scnc3C)cc2)C(C)(C)C)C(C)(C)C)cc1`, the “log(Kinetic_solubility)” value in series [1] was -3.25; in series [2], -3.24. Also, the logD at 0.5 h amounted to 3.09 in series [3] and 3 in series [4].

As to `Cc1ncsc1-c1ccc([C@H](CC(=O)N2CCC(N3CCC(C#Cc4ccc(C(=O)N[C@H]5C(C)(C)[C@H](Oc6ccc(C#N)c(Cl)c6)C5(C)C)cc4)CC3)CC2)NC(=O)[C@@H]2C[C@@H](O)CN2C(=O)[C@@H](NC(=O)C2(F)CC2)C(C)(C)C)cc1`, the “log(Kinetic_solubility)” value in series [1] (BLD = below limit of detection) and in series [2] (BLD = below limit of detection) was “Bld” each time. Also, the logD entry in series [3] was “Bld”. The logD at 0.5 h in series [4] amounted to 5.5.

As for `Cc1ncsc1-c1ccc([C@H](CC(=O)NCCCCCCNC(=O)COc2c(-c3csc(N4CCOCC4)n3)ccc(F)c2F)NC(=O)[C@@H]2C[C@@H](O)CN2C(=O)[C@@H](NC(=O)C2(F)CC2)C(C)(C)C)cc1`, the “log(Kinetic_solubility)” value is listed as -5 in series [1] and -5.14 in series [2]. Further, the logD result in series [3] was “Bld”. Besides, in series [4], the logD at 0.5 h was 4.82.

Regarding `Cc1ncsc1-c1ccc([C@H](C)NC(=O)[C@@H]2C[C@@H](O)CN2C(=O)[C@@H](NC(=O)COCCOCCNC(=O)COc2c(-c3csc(N4CCOCC4)n3)ccc(F)c2F)C(C)(C)C)cc1`, the entries for the “log(Kinetic_solubility)” value in series [1] and in series [2] were -4.47 and -4.52, respectively. Also, the figures for the logD at 0.5 h in series [3] and in series [4] were 3.5 and 3.94, respectively.

As to `Cc1ncsc1-c1ccc([C@H](C)NC(=O)[C@@H]2C[C@@H](O)CN2C(=O)[C@@H](NC(=O)CCCCn2cc(COc3c(-c4csc(N5CCOCC5)n4)ccc(F)c3F)nn2)C(C)(C)C)cc1`, the figures for the “log(Kinetic_solubility)” value in series [1] and in series [2] were -5 and -5.14, respectively. Besides, the logD entry in series [3] is “Bld”. The logD at 0.5 h in series [4] amounted to 4.99.

As to `Cc1ncsc1-c1ccc([C@H](C)NC(=O)[C@@H]2C[C@@H](O)CN2C(=O)[C@@H](NC(=O)CCCCn2cc(CCCC(=O)N3CCN(C(=O)c4cc(Cc5n[nH]c(=O)c6ccccc56)ccc4F)CC3)nn2)C(C)(C)C)cc1`, the “log(Kinetic_solubility)” value in series [1] was -4.37; in series [2], -4.34. Also, the figures for the logD at 0.5 h in series [3] and in series [4] were 2.89 and 3, respectively.

For `COc1ccc2c(c1)c(CC(=O)NCCN1CCN(C(=O)CCC(=O)N[C@H](C(=O)N3C[C@H](O)C[C@H]3C(=O)N[C@@H](C)c3ccc(-c4scnc4C)cc3)C(C)(C)C)CC1)c(C)n2C(=O)c1ccc(Cl)cc1`, the figures for the “log(Kinetic_solubility)” value in series [1] and in series [2] were -5.22 and -5.7, respectively. In addition, the logD result in series [3] is listed as “Bld”. Besides, the logD at 0.5 h in series [4] was 4.8.

In the case of `CC(=O)c1c(C)c2cnc(Nc3ccc(N4CCN(CCOCCOCCOCCNC(=O)COc5cccc6c5C(=O)N(C5CCC(=O)NC5=O)C6=O)CC4)cn3)nc2n(C2CCCC2)c1=O` (centres undefined), the “log(Kinetic_solubility)” value is given as -4.72 in series [1] and -5.05 in series [2]. For the same compound, the results for the logD at 0.5 h in series [3] and in series [4] were 2.17 and 2.29, respectively.

With `COc1ccc2c(c1)c(CC(=O)N1CCN(CCOCCOCC(=O)N[C@H](C(=O)N3C[C@H](O)C[C@H]3C(=O)N[C@@H](C)c3ccc(-c4scnc4C)cc3)C(C)(C)C)CC1)c(C)n2C(=O)c1ccc(Cl)cc1`, the “log(Kinetic_solubility)” value in series [1] was -5.11; in series [2] it was -5.22. In addition, the logD at 0.5 h worked out at 4.1 in series [3] and 4.33 in series [4].

As to `COc1ccc2c(c1)c(CC(=O)NCCN1CCN(CCOCCOCC(=O)N[C@H](C(=O)N3C[C@H](O)C[C@H]3C(=O)N[C@@H](C)c3ccc(-c4scnc4C)cc3)C(C)(C)C)CC1)c(C)n2C(=O)c1ccc(Cl)cc1`, the “log(Kinetic_solubility)” value in series [1] is listed as -4.59; in series [2], -4.62. The logD result in series [3] is given as “Bld”. In addition, the logD at 0.5 h in series [4] was found to be 5.1.

`Cc1ncsc1-c1ccc([C@H](C)NC(=O)[C@@H]2C[C@H](O)CN2C(=O)[C@@H](NC(=O)COCCOCCOCC(=O)N[C@H](C(=O)N2C[C@@H](O)C[C@H]2C(=O)N[C@@H](C)c2ccc(-c3scnc3C)cc2)C(C)(C)C)C(C)(C)C)cc1`: the “log(Kinetic_solubility)” value in series [1] was -4.62; in series [2], -4.66. Also, the logD at 0.5 h is 3.74 in series [3] and 3.5 in series [4].

Take `Cc1ncsc1-c1ccc([C@H](C)NC(=O)[C@@H]2C[C@@H](O)CN2C(=O)[C@@H](NC(=O)CCCCn2cc(CN3CCN(C(=O)C[C@@H]4N=C(c5ccc(Cl)cc5)c5c(sc(C)c5C)-n5c(C)nnc54)CC3)nn2)C(C)(C)C)cc1`: the figures for the “log(Kinetic_solubility)” value in series [1] and in series [2] were -4.54 and -4.68, respectively. In addition, the logD at 0.5 h in series [3] was found to be 3.81; in series [4] it was 4.12.

Take `Cc1ccc(-c2csc(N3CCOCC3)n2)c(OCC(=O)NCCCCC(=O)N[C@H](C(=O)N2C[C@H](O)C[C@H]2C(=O)N[C@@H](C)c2ccc(-c3scnc3C)cc2)C(C)(C)C)c1C`: the “log(Kinetic_solubility)” value in series [1] is -4.89; in series [2], -5.05. Besides, the logD entry in series [3] was “Bld”. Further, the logD at 0.5 h in series [4] is 5.02.

Regarding `Cc1ncsc1-c1ccc([C@H](C)NC(=O)[C@@H]2C[C@@H](O)CN2C(=O)[C@@H](NC(=O)CNCCOCCOc2c(-c3csc(N4CCOCC4)n3)ccc(F)c2F)C(C)(C)C)cc1`, the “log(Kinetic_solubility)” value in series [1] is -4.82; in series [2], -5.22. Moreover, the logD result in series [3] is “Bld”. The compound further displayed a logD at 0.5 h in series [4] of 5.2.

Take `Cc1ncsc1-c1ccc([C@H](C)NC(=O)[C@@H]2C[C@@H](O)CN2C(=O)[C@@H](NC(=O)CN2CCN(C(=O)C[C@@H]3N=C(c4ccc(Cl)cc4)c4c(sc(C)c4C)-n4c(C)nnc43)CC2)C(C)(C)C)cc1`: the “log(Kinetic_solubility)” value in series [1] is on record as -4.79; in series [2] it was -4.9. Besides, in series [3], the logD entry is given as “Bld”. The same compound yielded a logD at 0.5 h in series [4] of 4.56.

Take `Cc1ncsc1-c1ccc([C@H](CC(=O)NCCCCCCCCCCC(=O)N[C@H]2C(C)(C)[C@H](Oc3ccc(C#N)c(Cl)c3)C2(C)C)NC(=O)[C@@H]2C[C@@H](O)CN2C(=O)[C@@H](NC(=O)C2(F)CC2)C(C)(C)C)cc1`: the “log(Kinetic_solubility)” value in series [1] (BLD = below limit of detection) and in series [2] (BLD = below limit of detection) was “Bld” each time. In addition, the logD result in series [3] is “Bld”. Besides, the logD at 0.5 h in series [4] was found to be 4.9.

Consider `Cc1ncsc1-c1ccc([C@H](C)NC(=O)[C@@H]2C[C@@H](O)CN2C(=O)[C@@H](NC(=O)COCCOCCOCC(=O)N[C@H](C(=O)N2C[C@H](O)C[C@H]2C(=O)N[C@@H](C)c2ccc(-c3scnc3C)cc2)C(C)(C)C)C(C)(C)C)cc1`, for which the figures for the “log(Kinetic_solubility)” value in series [1] and in series [2] were -4.21 and -4.23, respectively. Further, the logD at 0.5 h in series [3] was 3.5; in series [4], 3.9.

As for `O=C(COc1c(-c2csc(N3CCOCC3)n2)ccc(F)c1F)NCCOCCOCCOCCOCCNc1cccc2c1C(=O)N(C1CCC(=O)NC1=O)C2=O` (centres undefined), the “log(Kinetic_solubility)” value in series [1] and in series [2] was -4.28 throughout. For the same compound, the logD at 0.5 h in series [3] and in series [4] was 2.82 each time.

Turning to `O=C(COc1c(-c2csc(N3CCOCC3)n2)ccc(F)c1F)NCCCCCCCCCCNc1ccc2nnn(C3CCC(=O)NC3=O)c(=O)c2c1` (centres undefined), the “log(Kinetic_solubility)” value in series [1] (BLD = below limit of detection) and in series [2] (BLD = below limit of detection) was “Bld” throughout. In series [3], the logD entry is listed as “Bld”. Moreover, in series [4], the logD at 0.5 h was found to be 4.93.

Turning to `Cn1c(=O)n(C)c2cc(CNCCOCCOCCNCC3CCN(c4ccc(C(=O)N[C@H]5CC[C@H](Oc6ccc(C#N)c(Cl)c6)CC5)nn4)CC3)ccc21`, the “log(Kinetic_solubility)” value in series [1] was -3.07; in series [2], -3.06. Further, the logD at 0.5 h came out at 2.45 in series [3] and 2.52 in series [4].

`Cc1ncsc1-c1ccc(CNC(=O)[C@@H]2C[C@@H](O)CN2C(=O)[C@@H](NC(=O)COCCOCCOCC(=O)N[C@H](C(=O)N2C[C@H](O)C[C@H]2C(=O)NCc2ccc(-c3scnc3C)cc2)C(C)(C)C)C(C)(C)C)cc1`: the figures for the “log(Kinetic_solubility)” value in series [1] and in series [2] were -3.93 and -3.98, respectively. Besides, the logD at 0.5 h in series [3] is 3.7; in series [4] it was 3.19.

For the compound `Cn1c(=O)n(C)c2cc(CNCCCNCC3CCN(c4ccc(C(=O)N[C@H]5CC[C@H](Oc6ccc(C#N)c(Cl)c6)CC5)nn4)CC3)ccc21`, the “log(Kinetic_solubility)” value is -4.28 in series [1] and -4.14 in series [2]. For the same compound, in series [3], the logD entry is reported as “Bld”. Further, the logD at 0.5 h in series [4] turned out to be 4.43.

As for `COc1cc(C(=O)NCCCCCCNC(=O)COc2c(-c3csc(N4CCOCC4)n3)ccc(F)c2F)ccc1NC(=O)[C@@H]1N[C@@H](CC(C)(C)C)[C@](C#N)(c2ccc(Cl)cc2F)[C@H]1c1cccc(Cl)c1F`, the “log(Kinetic_solubility)” value in series [1] (BLD = below limit of detection) and in series [2] (BLD = below limit of detection) was “Bld” each time. Also, the figures for the logD at 0.5 h in series [3] and in series [4] were 3.7 and 4, respectively.

As to `Cc1ncsc1-c1ccc([C@H](C)NC(=O)[C@@H]2C[C@@H](O)CN2C(=O)[C@@H](NC(=O)CCCCCCCCCCC(=O)N2CCN(C(=O)c3cc(Cc4n[nH]c(=O)c5ccccc45)ccc3F)CC2)C(C)(C)C)cc1`, the “log(Kinetic_solubility)” value in series [1] (BLD = below limit of detection) is on record as “Bld”; in series [2], -7.21. Further, in series [3], the logD result is reported as “Bld”. Moreover, the logD at 0.5 h in series [4] is 5.

In the case of `Cn1c(=O)n(C)c2cc(CNCCOCCNCC3CCN(c4ccc(C(=O)N[C@H]5CC[C@H](Oc6ccc(C#N)c(Cl)c6)CC5)nn4)CC3)ccc21`, the entries for the “log(Kinetic_solubility)” value in series [1] and in series [2] were -3.69 and -3.64, respectively. In addition, the logD at 0.5 h in series [3] turned out to be 3.25; in series [4], 3.7.

Consider `O=C1CCC(N2C(=O)c3cccc(NCCOCCOCC(=O)N4CCN(C(=O)c5cc(Cc6n[nH]c(=O)c7ccccc67)ccc5F)CC4)c3C2=O)C(=O)N1` (centres undefined), for which the “log(Kinetic_solubility)” value in series [1] was -4.16; in series [2], -4.19. Also, the logD at 0.5 h was 0.867 in series [3] and 1.27 in series [4].
